# Measurements reported in ChEMBL document CHEMBL1201862, “PubChem BioAssay data set” (2004).
#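 Exposure lasted 48 hours, with cells grown in 96-well plates and compounds tested at five concentrations. GI50: concentration for 50% inhibition of growth.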 The source made the active and inactive calls. No stated cut-off is given here; in the data, active = GI50 up to about 1.1 µM and inactive = higher.
# How the values were obtained:
# Assay in all cases: inhibition of tumour cell growth, NCI panel, 48 h
# [1] = test system: ACHN
# [2] = test system: CAKI-1
# [3] = test system: DU-145
# [4] = test system: EKVX
# [5] = test system: HOP-62
# [6] = test system: MDA-MB-435
# [7] = test system: MOLT-4
# [8] = test system: Malme-3M
# [9] = test system: OVCAR-3
# [10] = test system: OVCAR-4
# [11] = test system: OVCAR-8
# [12] = test system: PC-3
# [13] = test system: RXF 393
# [14] = test system: SK-MEL-2
# [15] = test system: TK-10
# [16] = test system: UACC-62
# [17] = test system: CCRF-CEM
# [18] = test system: MCF7
# [19] = test system: SNB-75
# [20] = test system: 786-0
SMILES,GI50 [1],GI50 [2],GI50 [3],GI50 [4],GI50 [5],GI50 [6],GI50 [7],GI50 [8],GI50 [9],GI50 [10],GI50 [11],GI50 [12],GI50 [13],GI50 [14],GI50 [15],GI50 [16],GI50 [17],GI50 [18],GI50 [19],GI50 [20]
c1ccc2sc(SCN(C3CCCCC3)C3CCCCC3)nc2c1,> 100 µM (inactive),> 100 µM (inactive),> 100 µM (inactive),> 100 µM (inactive),> 100 µM (inactive),> 100 µM (inactive),> 100 µM (inactive),> 100 µM (inactive),> 100 µM (inactive),> 100 µM (inactive),> 100 µM (inactive),> 100 µM (inactive),> 100 µM (inactive),> 100 µM (inactive),> 100 µM (inactive),> 100 µM (inactive),–,–,–,–
COc1ccc(O)c(C#N)c1C#N.COc1ccc(OC)c(C#N)c1C#N,–,> 100 µM (inactive),–,23.7 µM (inactive),> 100 µM (inactive),–,> 100 µM (inactive),> 100 µM (inactive),> 100 µM (inactive),> 100 µM (inactive),> 100 µM (inactive),–,> 100 µM (inactive),> 100 µM (inactive),–,> 100 µM (inactive),> 100 µM (inactive),> 100 µM (inactive),45.8 µM (inactive),–
COc1ccc(-c2cc(-c3ccccc3)nc(N)c2-c2ccc3ccccc3c2)cc1,2.05 µM (inactive),3.46 µM (inactive),–,1.83 µM (inactive),2.3 µM (inactive),2.11 µM (inactive),2.37 µM (inactive),1.25 µM (inactive),2.47 µM (inactive),0.979 µM (active),1.66 µM (inactive),2.22 µM (inactive),1.82 µM (inactive),1.82 µM (inactive),3.15 µM (inactive),1.58 µM (inactive),3.13 µM (inactive),1.83 µM (inactive),2.3 µM (inactive),1.73 µM (inactive)
CC(=O)Nc1ccc(C(=O)NN2C(=O)CSC2c2ccc(O)cc2)cc1 (stereo unspecified),> 100 µM (inactive),–,> 100 µM (inactive),> 100 µM (inactive),> 100 µM (inactive),> 100 µM (inactive),> 100 µM (inactive),–,> 100 µM (inactive),> 100 µM (inactive),> 100 µM (inactive),–,> 100 µM (inactive),> 100 µM (inactive),> 100 µM (inactive),> 100 µM (inactive),> 100 µM (inactive),> 100 µM (inactive),91.6 µM (inactive),> 100 µM (inactive)
CNC(=O)OCc1c(CO)nc(SC)n1C,–,> 100 µM (inactive),–,> 100 µM (inactive),> 100 µM (inactive),–,> 100 µM (inactive),> 100 µM (inactive),> 100 µM (inactive),> 100 µM (inactive),> 100 µM (inactive),–,> 100 µM (inactive),> 100 µM (inactive),–,> 100 µM (inactive),> 100 µM (inactive),> 100 µM (inactive),> 100 µM (inactive),–
O=C1NCCCNCCCNCCCNC(=O)c2cccc1n2,> 100 µM (inactive),> 100 µM (inactive),–,> 100 µM (inactive),> 100 µM (inactive),> 100 µM (inactive),> 100 µM (inactive),> 100 µM (inactive),> 100 µM (inactive),> 100 µM (inactive),> 100 µM (inactive),> 100 µM (inactive),18.1 µM (inactive),63.2 µM (inactive),> 100 µM (inactive),> 100 µM (inactive),> 100 µM (inactive),–,> 100 µM (inactive),> 100 µM (inactive)
COC(=O)C(Cc1c(C2Nc3ccccc3C2CC(NC(C)=O)C(=O)OC)[nH]c2ccccc12)NC(C)=O (stereo unspecified),> 100 µM (inactive),> 100 µM (inactive),> 100 µM (inactive),> 100 µM (inactive),> 100 µM (inactive),> 100 µM (inactive),> 100 µM (inactive),> 100 µM (inactive),> 100 µM (inactive),–,> 100 µM (inactive),> 100 µM (inactive),> 100 µM (inactive),> 100 µM (inactive),> 100 µM (inactive),> 100 µM (inactive),> 100 µM (inactive),–,> 100 µM (inactive),> 100 µM (inactive)
O=C(O)c1ccccc1/N=C/c1ccc(N(CCCl)CCCl)cc1,–,9.75 µM (inactive),–,64.1 µM (inactive),1.31 µM (inactive),–,36.6 µM (inactive),> 100 µM (inactive),> 100 µM (inactive),> 100 µM (inactive),> 100 µM (inactive),–,> 48.3 µM (inactive),> 100 µM (inactive),–,5.74 µM (inactive),> 80.7 µM (inactive),> 84.7 µM (inactive),> 100 µM (inactive),–
CN(C)c1ccc(/C=c2\sc3nnc(Cc4ccccc4)n3c2=O)cc1,75.3 µM (inactive),> 10 µM (inactive),–,> 10 µM (inactive),> 10 µM (inactive),–,> 10 µM (inactive),> 10 µM (inactive),> 10 µM (inactive),> 10 µM (inactive),> 10 µM (inactive),–,31.8 µM (inactive),> 10 µM (inactive),> 10 µM (inactive),> 10 µM (inactive),> 10 µM (inactive),–,> 10 µM (inactive),> 10 µM (inactive)
CSC1(CC(=O)N(C)C)C(=O)Nc2ccccc21 (stereo unspecified),> 100 µM (inactive),–,> 100 µM (inactive),> 100 µM (inactive),> 100 µM (inactive),> 100 µM (inactive),> 100 µM (inactive),> 100 µM (inactive),> 100 µM (inactive),> 100 µM (inactive),–,> 100 µM (inactive),–,> 100 µM (inactive),> 100 µM (inactive),> 100 µM (inactive),–,> 100 µM (inactive),> 100 µM (inactive),> 100 µM (inactive)
CC[C@H](C)[C@H]1NC(=O)C(C(C)=O)=C1O,> 100 µM (inactive),> 100 µM (inactive),–,> 100 µM (inactive),> 100 µM (inactive),–,> 100 µM (inactive),> 100 µM (inactive),72.9 µM (inactive),95.9 µM (inactive),> 100 µM (inactive),–,23.3 µM (inactive),95.3 µM (inactive),> 100 µM (inactive),97.5 µM (inactive),52.2 µM (inactive),–,91.2 µM (inactive),98.6 µM (inactive)
O=[N+]([O-])c1ccc(NC2OCC(O)C(O)C2O)cc1 (stereo unspecified),> 100 µM (inactive),> 100 µM (inactive),–,> 100 µM (inactive),> 100 µM (inactive),–,> 100 µM (inactive),> 100 µM (inactive),> 100 µM (inactive),> 100 µM (inactive),> 100 µM (inactive),–,43 µM (inactive),> 100 µM (inactive),> 100 µM (inactive),> 100 µM (inactive),> 100 µM (inactive),–,> 100 µM (inactive),> 100 µM (inactive)
CN(NC(=O)c1cccs1)C1=NCCCCN1,> 100 µM (inactive),–,–,> 100 µM (inactive),> 100 µM (inactive),> 100 µM (inactive),> 100 µM (inactive),> 100 µM (inactive),> 100 µM (inactive),> 100 µM (inactive),> 100 µM (inactive),> 100 µM (inactive),> 100 µM (inactive),> 100 µM (inactive),> 100 µM (inactive),> 100 µM (inactive),> 100 µM (inactive),> 100 µM (inactive),> 100 µM (inactive),> 100 µM (inactive)
N=c1c2c(=S)n(-c3ccccc3)c(=S)n(-c3ccccc3)c2nc(SCCN2CCCC2)n1-c1ccccc1,1.77 µM (inactive),1.56 µM (inactive),1.76 µM (inactive),2.49 µM (inactive),3.4 µM (inactive),1.87 µM (inactive),0.08 µM (active),2.17 µM (inactive),1.68 µM (inactive),3 µM (inactive),2.01 µM (inactive),1.75 µM (inactive),1.41 µM (inactive),5.94 µM (inactive),1.59 µM (inactive),1.63 µM (inactive),0.347 µM (active),–,2.66 µM (inactive),0.622 µM (active)
CCO/C=N\C1=C(C#N)SC2=N/C(=C\c3ccc(OC)cc3)C(=O)N21,94.2 µM (inactive),> 100 µM (inactive),> 100 µM (inactive),60.1 µM (inactive),–,> 100 µM (inactive),> 100 µM (inactive),> 100 µM (inactive),–,15.4 µM (inactive),> 100 µM (inactive),–,43.5 µM (inactive),–,58.2 µM (inactive),–,> 100 µM (inactive),> 100 µM (inactive),19.2 µM (inactive),40.6 µM (inactive)
O=C(CC1(O)C(=O)Nc2c(Cl)cc(Cl)cc21)c1ccc2ccccc2c1 (stereo unspecified),14.4 µM (inactive),5.7 µM (inactive),–,9.77 µM (inactive),7.83 µM (inactive),–,6.24 µM (inactive),6.53 µM (inactive),6.18 µM (inactive),13.6 µM (inactive),10.6 µM (inactive),–,8.17 µM (inactive),2.48 µM (inactive),14.1 µM (inactive),3.55 µM (inactive),10.2 µM (inactive),–,3.99 µM (inactive),10.2 µM (inactive)
CC(C)=CC1C(C(=O)O)C1(C)C (stereo unspecified) [CHRYSANTHEMIC ACID],–,643 µM (inactive),–,> 750 µM (inactive),> 750 µM (inactive),–,> 750 µM (inactive),746 µM (inactive),> 750 µM (inactive),> 750 µM (inactive),> 750 µM (inactive),–,> 750 µM (inactive),> 750 µM (inactive),–,> 750 µM (inactive),> 750 µM (inactive),> 750 µM (inactive),> 750 µM (inactive),–
